Values quoted from earlier work in patent publication US20090175934A1, “Extended Release Pharmaceutical Formulation of Venlafaxine and Method of Manufacturing the Same” (Jubilant Organosys Ltd., priority 2006, published 2009).
Structures can show the parent of a compound that is named as a salt.

What was measured:
patients = conditions: plural daily dosing regimen
[1] = compressed tablets, therapeutic dosing

## COc1ccc(C(CN(C)C)C2(O)CCCCC2)cc1 (stereo not drawn) [Venlafaxine hydrochloride]
patients
  patients experiencing nausea: about forty five percent
  patients in whom vomiting occurs: about seventeen percent
[1]
  time until sub-therapeutic plasma levels are approached following administration: about twelve hours
